Data published in patent US20240300975A1, “DIMETHYL-SUBSTITUTED THIAZOLOLACTAM COMPOUND AND USE THEREOF” (D3 Bio (Wuxi) Co., Ltd., priority 2021, published 2024).

Experiments:
ERK2 = ERK2 (Homo sapiens (Human), UniProt P28482); assay: In vitro ERK2 kinase activity assay (33P-ATP, filter-binding); format: biochemical
Description: The ability of compounds to inhibit ERK1 and ERK2 kinase activity was measured.
20 mM Hepes (pH 7.5), 10 mM MgCl2, 1 mM ethylenebis(oxyethylenenitrilo)tetraacetic acid (EGTA), 0.02% Brij35, 0.02 mg/mL bovine serum albumin (BSA), 0.1 mM Na3VO4, 2 mM dithiothreitol (DTT), 1% DMSO.
The assay compound was dissolved in 100% DMSO to prepare a stock solution of specific concentration. The compound was serially diluted in DMSO solution using Integra Viaflo Assist smart pipette.
• a) The substrate MBP was prepared in freshly prepared reaction buffer; • b) ERK1 (or ERK2) kinase was added to the above-mentioned MBP solution and mixed gently; • c) The compound dissolved in 100% DMSO was added to the kinase reaction system using ultrasound technology (Echo550; nanoliter range), and the mixture was incubated at room temperature for 20 minutes; • d)^33P-ATP (specific concentration of […]) was added to the reaction system, and the reaction was started at this time; • e) The mixture was incubated at room temperature for 2 hours; • f) The amount of radioactivity was detected by filter-binding method; • g) ERK1 (or ERK2) kinase activity was calculated as the ratio of the remaining kinase activity in the assay sample to the kinase activity of the control group (treated by DMSO).
Curve was fitted using Prism (GraphPad software) and IC50 values were calculated.

HT29 tumor cells = assay: In vitro cell proliferation inhibition (CellTiterGlo); format: cell-based; details: Homo sapiens, HT-29
Description: The ability of compounds to inhibit the proliferation of HT29 tumor cells was measured.
The assay compound was dissolved in 100% DMSO to prepare 10 mM stock solution.
• a) UV light of a biological safety cabin was turned on, and 30 minutes were counted down; • b) In a 37° C. water bath, RPMI1640 medium and trypsin were preheated; • c) After completion of the UV irradiation, the biological safety cabin was opened. The preheated medium, trypsin and phosphate buffered saline (PBS), etc. were wiped with alcohol and placed in the biological safety cabin; • d) HT29 cells were removed from the incubator, and the old medium was removed in biological safety cabin. 10 ml of PBS was added. […] The culture vessel was shaken horizontally so that the trypsin evenly covered the cells at the bottom, and placed in an incubator for 2 minutes; • f) Cell digestion was stopped with complete medium, and the cell suspension was pipetted to homogeneity and counted; • g) According to the result of cell counting, the density of cell suspension was adjusted to 1500 cells per well, and the cell suspension was seeded at 50 μl per well; • h) The stock solution of compounds was serially diluted in DMSO solution, and compounds were added to cell plate using Tecan; • i) The compound-added cell plate and CellTiterGlo were equilibrated at room temperature, and 25 microliters of CellTiterGlo was then added to each well. […]

Chain of ERK2 (P28482 whole entry): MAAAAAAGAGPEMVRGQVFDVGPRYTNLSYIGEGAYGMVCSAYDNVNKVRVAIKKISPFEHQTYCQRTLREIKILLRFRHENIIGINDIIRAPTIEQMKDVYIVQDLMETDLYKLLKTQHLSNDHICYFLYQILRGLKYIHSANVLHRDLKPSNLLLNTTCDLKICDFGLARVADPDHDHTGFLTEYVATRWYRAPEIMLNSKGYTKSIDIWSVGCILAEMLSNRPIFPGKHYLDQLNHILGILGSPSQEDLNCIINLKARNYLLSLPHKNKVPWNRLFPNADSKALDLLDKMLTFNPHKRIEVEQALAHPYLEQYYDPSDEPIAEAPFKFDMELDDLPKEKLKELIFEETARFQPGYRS

An IC50 (ERK2) of 0.93 nM was found for `Cc1cccc(CN2C(=O)c3nc(-c4ccnc(Nc5ccnn5C)n4)sc3C2(C)C)n1` [WX003] in this work.
An IC50 (ERK2) of 0.47 nM and an IC50 (HT29 tumor cells) of 46 nM were found for `Cc1cccc(CN2C(=O)c3nc(-c4nc(NC5CCOCC5)ncc4C)sc3C2(C)C)n1` [WX002] in this work.
An IC50 (ERK2) of 0.34 nM was found for `CCc1cnc(Nc2ccnn2C)nc1-c1nc2c(s1)C(C)(C)N(Cc1cccc(C)n1)C2=O` [WX004] in this work.
